Results on 55 molecules are retold here after US9440941B2, “Substituted chroman-6-yloxy-cycloalkanes and their use as pharmaceuticals” (SANOFI, priority 2013, dated 2016).

Usually IC50 stands for the concentration that gives 50% inhibition.

Structures can show the parent of a compound that is named as a salt.

In the assay the target is T1, human NCX1 (Homo sapiens, UniProt P32418).
T1 construct: expressed in transfected cells
Nature of the assay: Inhibition of Ca2+ influx into cells (NCX1 reverse mode), FLIPR Fluo-4 assay. The format is cell-based. The settings on record: inhibition of NCX1 in reverse mode (Ca2+ influx into cells); read-out: NCX1rv IC50. Put shortly: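 CHO cells stably expressing human NCX1, loaded with Fluo-4 AM, preincubated with compound 45 min at 16 °C in pH 7.4 buffer (3.5 mM CaCl2). Reverse mode triggered by 20 µM gramicidin (final); Fluo-4 fluorescence read at 520 nm every 2 s. IC50 from percentage inhibition of max-minus-min fluorescence.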
As to `O=C(N[C@H]1CC[C@H](Oc2ccc3c(c2)CCC(c2ccccc2)O3)CC1)C1CC1(F)F` (relative stereo) [compound 32], the IC50 was determined as 100 nM.
Regarding `N[C@H]1CC[C@H](Oc2ccc3c(c2)CC[C@@H](c2ccccc2)O3)CC1` [compound 10, hydrochloride], the IC50 was determined as 300 nM.
Take `FC(F)(F)CCN[C@H]1CC[C@H](Oc2ccc3c(c2)CCC(c2ccccc2)O3)CC1` (relative stereo) [compound 54]: the IC50 came out at 600 nM.
Take `Cc1ccccc1C1CCc2cc(O[C@H]3CC[C@@H](C(=O)Nc4ccccn4)CC3)ccc2O1` (relative stereo) [compound 265]: the IC50 is 400 nM.
`CS(=O)(=O)NC[C@H]1CC[C@@H](Oc2ccc3c(c2)CCC(c2ccccc2)O3)CC1` (relative stereo) [compound 3]: the IC50 is 700 nM.
As for `c1ccc(C2CCc3cc(OC4CCC(NC5CCCCC5)CC4)ccc3O2)cc1` (stereo not shown) [compound 105], the IC50 came out at 1100 nM.
Take `CCn1nccc1CNC(=O)C1CCC(Oc2ccc3c(c2)CC(C)C(c2ccccc2)O3)CC1` (stereo not shown) [compound 297]: the IC50 was found to be 500 nM.
In the case of “N-But-3-enyl-4-(2-phenylchroman-6-yloxy)-cyclohexylamine [compound 148]”, the IC50 worked out at 900 nM.
For the molecule `Fc1ccccc1C1CCc2cc(OC3CCC(NC4CC4)CC3)ccc2O1` (stereo not shown) [compound 212], the IC50 stood at 1700 nM.
Next, `CCCC1(O)CCC(Oc2ccc3c(c2)CCC(c2ccccc2)O3)CC1` (stereo not shown) [compound 90, 4-(2-Phenylchroman-6-yloxy)-1-propyl-cyclohexanol]: 200 nM; `N[C@H]1CC[C@@H](Oc2ccc3c(c2)CCC(c2ccccc2)O3)CC1` (relative stereo) [compound 2, hydrochloride]: 1300 nM; `CO[C@H](C)C(=O)N[C@H]1CC[C@H](Oc2ccc3c(c2)CCC(c2ccccc2)O3)CC1` (stereo partly shown) [compound 23]: 300 nM.
The same measure for `Fc1ccccc1C1CCc2cc(OC3CCC(NCC4CCCO4)CC3)ccc2O1` (stereo not shown) [compound 216]: 1700 nM.
Next, `Cc1nc(CNC(=O)[C@H]2CC[C@@H](Oc3ccc4c(c3)CCC(c3ccccc3)O4)CC2)no1` (single isomer, unassigned; stereoisomer 2) [compound 96, N-(5-Methyl-[1,2,4]oxadiazol-3-ylmethyl)-[4-cis-(2-phenylchroman-6-yloxy)]-cyclohexanecarboxamide, stereoisomer 2 (2)]: 400 nM; `CC(C)(C)CN[C@H]1CC[C@H](Oc2ccc3c(c2)CCC(c2ccccc2)O3)CC1` (relative stereo) [compound 58, N-(2,2-Dimethylpropyl)-[trans-4-(2-phenylchroman-6-yloxy)]-cyclohexylamine]: 600 nM.
For the molecule `CS(=O)(=O)CCC(=O)N[C@H]1CC[C@H](Oc2ccc3c(c2)CCC(c2ccccc2F)O3)CC1` (relative stereo) [compound 259], the IC50 worked out at 100 nM.
As to “N-(2-Hydroxy-1,1-dimethyl-ethyl)-4-(2-phenylchroman-6-yloxy)-cyclohexanecarboxamide [compound 151]”, the IC50 came out at 1300 nM.
For `CSC(C)CCNC1CCC(Oc2ccc3c(c2)CCC(c2c(C)cccc2C)O3)CC1` (stereo not shown) [compound 165], the IC50 stood at 10000 nM.
For `c1ccc(C2CCc3cc(OC4CCC(NCCSC5CCCCC5)CC4)ccc3O2)cc1` (stereo not shown) [compound 117], the IC50 is 3700 nM.
On to `NC[C@H]1CC[C@@H](Oc2ccc3c(c2)CCC(c2ccccc2)O3)CC1` (relative stereo) [compound 1, hydrochloride], for which the IC50 was 500 nM.
The same measure for `c1ccc(C2CCc3cc(O[C@H]4CC[C@H](N(Cc5ccsc5)Cc5ccsc5)CC4)ccc3O2)cc1` (stereo partly drawn) [compound 79, [trans-4-(2-Phenylchroman-6-yloxy)]-N,N-bis(thiophen-3-ylmethyl)cyclohexylamine]: 11000 nM.
As for `Cc1cc(CN[C@H]2CC[C@H](Oc3ccc4c(c3)CCC(c3ccccc3)O4)CC2)no1` (stereo partly drawn) [compound 49, N-(5-Methylisoxazol-3-ylmethyl)-[trans-4-(2-phenylchroman-6-yloxy)]-cyclohexylamine], the IC50 was determined as 600 nM.
As for `CC(C)OCCCNC1CCC(Oc2ccc3c(c2)CCC(c2ccccc2)O3)CC1` (stereo not shown) [compound 134], the IC50 came out at 1100 nM.
For `COc1cccc(C2CCc3cc(OC4CCC(C(=O)NCCO)CC4)ccc3O2)c1F` (stereo not shown) [compound 294], the IC50 came out at 1300 nM.
The same measure for `O=C(CN1CCCC1)N[C@H]1CC[C@H](Oc2ccc3c(c2)CCC(c2ccccc2)O3)CC1` (relative stereo) [compound 182]: 300 nM; for `CSCCCN[C@H]1CC[C@H](Oc2ccc3c(c2)CCC(c2ccccc2)O3)CC1` (stereo partly drawn) [compound 48, N-(3-Methylsulfanylpropyl)-[trans-4-(2-phenylchroman-6-yloxy)]-cyclohexylamine]: 500 nM; for `CSCCNC1CCC(Oc2ccc3c(c2)CCC(c2ccccc2F)O3)CC1` (stereo not shown) [compound 226]: 2400 nM.
Consider `Cc1n[nH]c(C)c1CC(=O)N[C@H]1CC[C@H](Oc2ccc3c(c2)CCC(c2ccccc2)O3)CC1` (relative stereo) [compound 43], for which the IC50 turned out to be 100 nM.
The same measure for `Cc1nc(C(=O)N[C@H]2CC[C@H](Oc3ccc4c(c3)CCC(c3ccccc3F)O4)CC2)cs1` (relative stereo) [compound 247]: 300 nM; for `CCC(C)CN(CC(C)CC)[C@H]1CC[C@H](Oc2ccc3c(c2)CCC(c2ccccc2)O3)CC1` (stereo partly drawn) [compound 88, N,N-Bis(2-methylbutyl)-[trans-4-(2-phenylchroman-6-yloxy)]-cyclohexylamine]: 2500 nM.
On to `Fc1ccccc1C1CCc2cc(OC3CCC(NC4CCCC4)CC3)ccc2O1` (stereo not shown) [compound 218], for which the IC50 came to 2800 nM.
For the molecule “N-[1-(Methoxymethyl)propyl]-4-(2-phenylchroman-6-yloxy)-cyclohexylamine [compound 133]”, the IC50 was 1000 nM.
Next, `Cc1ncsc1CN[C@H]1CC[C@H](Oc2ccc3c(c2)CCC(c2ccccc2)O3)CC1` (stereo partly drawn) [compound 67, N-(4-Methylthiazol-5-ylmethyl)-[trans-4-(2-phenylchroman-6-yloxy)]-cyclohexylamine]: 400 nM; `C[C@@H](N)C(=O)N[C@H]1CC[C@H](Oc2ccc3c(c2)CCC(c2ccccc2)O3)CC1` (stereo partly shown) [compound 72, hydrochloride]: 300 nM.
Consider `Cc1ccnn1CCC(=O)N[C@H]1CC[C@H](Oc2ccc3c(c2)CCC(c2ccccc2F)O3)CC1` (relative stereo) [compound 257], for which the IC50 worked out at 200 nM.
As for `Cc1ccc(F)cc1C1CCc2cc(O[C@H]3CC[C@H](NC(=O)CN)CC3)ccc2O1` (relative stereo) [compound 186], the IC50 was 400 nM.
As to `Cc1c(F)cccc1C1CCc2cc(OC3CCC(C(=O)NC4CCCCC4O)CC3)ccc2O1` (single isomer, unassigned) [compound 285], the IC50 was 500 nM.
Turning to `Cc1nn(C)c(C)c1CNC1CCC(Oc2ccc3c(c2)CCC(c2ccccc2F)O3)CC1` (stereo not shown) [compound 169], the IC50 was 2500 nM.
As for `CCCC1(NC2CCC(Oc3ccc4c(c3)CCC(c3ccccc3)O4)CC2)CC1` (stereo not shown) [compound 124], the IC50 came to 2400 nM.
Consider `Cc1c(F)cccc1C1CCc2cc(OC3CCC(C(=O)NCc4ccno4)CC3)ccc2O1` (stereo not shown) [compound 263], for which the IC50 was found to be 100 nM.
Take `Cc1cccc(C)c1C1CCc2cc(OC3CCC(NCc4c(C)nn(C)c4C)CC3)ccc2O1` (stereo not shown) [compound 164]: the IC50 is 9400 nM.
The same measure for `c1ccc(C2CCc3cc(O[C@H]4CC[C@H](NCC5CCOC5)CC4)ccc3O2)cc1` (relative stereo) [compound 61]: 300 nM.
Regarding `Cc1nn(C)c(C)c1CNC1CCC(Oc2ccc3c(c2)CCC(c2ccccc2)O3)CC1` (stereo not shown) [compound 104], the half-maximal inhibitory concentration (IC50) was determined as 800 nM.
For `CC(C)N1CCC(CNC2CCC(Oc3ccc4c(c3)CCC(c3ccccc3)O4)CC2)CC1` (stereo not shown) [compound 118], the IC50 worked out at 2100 nM.
Next, `Cc1c(F)cccc1C1CCc2cc(OC3CCC(C(=O)NC[C@@H]4CCCC[C@H]4O)CC3)ccc2O1` (stereo partly shown) [compound 284]: 800 nM; `O=C(CCn1cccn1)N[C@H]1CC[C@H](Oc2ccc3c(c2)CCC(c2ccccc2)O3)CC1` (relative stereo) [compound 39]: 300 nM.
Take `O=C(N[C@H]1CC[C@H](Oc2ccc3c(c2)CCC(c2ccccc2F)O3)CC1)c1ccncc1F` (relative stereo) [compound 246]: the IC50 turned out to be 100 nM.
Consider `COC(=O)CNC(=O)C1CCC(Oc2ccc3c(c2)CCC(c2ccccc2)O3)CC1` (single isomer, unassigned; stereoisomer 2) [compound 92, Methyl 2-[[cis-4-[2-phenylchroman-6-yloxy]cyclohexanecarbonyl]amino]acetate,stereoisomer 2 (2)], for which the IC50 is 100 nM.
The same measure for `COCCCNC1CCC(Oc2ccc3c(c2)CCC(c2ccccc2)O3)CC1` (stereo not shown) [compound 121]: 700 nM; for `Fc1ccccc1C1CCc2cc(OC3CCC(NCCN4CCOCC4)CC3)ccc2O1` (stereo not shown) [compound 224]: 3500 nM; for `O=C(Cn1cncn1)N[C@H]1CC[C@H](Oc2ccc3c(c2)CCC(c2ccccc2)O3)CC1` (relative stereo) [compound 35]: 100 nM.
Regarding `CC1(O)CCC(Oc2ccc3c(c2)CCC(c2ccccc2)O3)CC1` (stereo not shown) [compound 163, 1-Methyl-4-(2-phenylchroman-6-yloxy)-cyclohexanol], the IC50 was determined as 600 nM.
Consider “N-[2-(1-Isopropylpiperidin-4-yl)ethyl]-4-(2-phenylchroman-6-yloxy)-cyclohexylamine [compound 136]”, for which the IC50 was found to be 1800 nM.
Regarding `Cc1c(CCC(=O)N[C@H]2CC[C@H](Oc3ccc4c(c3)CCC(c3ccccc3F)O4)CC2)cnn1C` (relative stereo) [compound 258], the IC50 amounted to 200 nM.
For the molecule `COc1c(F)cccc1C1CCc2cc(OC3CCC(C(=O)NCCO)CC3)ccc2O1` (stereo not shown) [compound 302], the 50% inhibitory concentration (IC50) came to 400 nM.
